According to US9980943B2, “Methods of treating muscular dystrophy” (BOARD OF REGENTS OF THE NEVADA SYSTEM OF HIGHER EDUCATION, …, priority 2013, dated 2018):

How the values were obtained:
Type in all cases: cell-based, mouse
[1] = system: α7 integrin (LacZ reporter in α7βgal+/− myoblasts); assay: Myoblast α7+/LacZ integrin FDG assay (Burkin assay in myoblasts, 96-well); conditions: α7+/LacZ myoblasts, 96-well
[2] = system: α7 integrin (LacZ reporter in α7+/LacZ myotubes); assay: Myotube α7 integrin FDG assay (Burkin assay in myotubes, 96-well); conditions: myotubes
[3] = system: β-galactosidase in CMV-LacZ C2C12 myoblasts; assay: CMV-LacZ secondary screen in C2C12 myoblasts (β-Gal stabilizing assay); conditions: CMV-LacZ C2C12 myoblasts
In short: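 A secondary screen identifies compounds that stabilize β-gal independently of the native promoter, using CMV-LacZ C2C12 cells. Curves span 0.5–40 μM at six levels, in duplicate.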

[4] = system: β-galactosidase in CMV-LacZ C2C12 myotubes; assay: CMV-LacZ secondary screen in C2C12 myotubes (β-Gal stabilizing assay); conditions: C2C12 CMV-LacZ myotubes, fold relative to DMSO
In short: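 First, C2C12 myoblasts were transfected with a linearized CMV-LACZ vector and clonal lines selected by FDG β-gal assay. Then cells were exposed to compounds at 0.5, 1, 5, 10, 20 and 40 μM in 96-well format, two replicates each, and β-gal measured.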

Compound	Burkin Assay in Myoblasts, signal relative to DMSO ([1]; 0.5 uM)	Burkin Assay in Myoblasts, signal relative to DMSO ([1]; 1 uM)	Burkin Assay in Myoblasts, signal relative to DMSO ([1]; 5 uM)	Burkin Assay in Myoblasts, signal relative to DMSO ([1]; 10 uM)	Burkin Assay in Myoblasts, signal relative to DMSO ([1]; 20 uM)	Burkin Assay in Myoblasts, signal relative to DMSO ([1]; 40 uM)	Burkin Assay in Myotubes, α7 integrin LacZ reporter signal relative to DMSO ([2]; 0.5 uM)	Burkin Assay in Myotubes, α7 integrin LacZ reporter signal relative to DMSO ([2]; 1 uM)	Burkin Assay in Myotubes, α7 integrin LacZ reporter signal relative to DMSO ([2]; 5 uM)	Burkin Assay in Myotubes, α7 integrin LacZ reporter signal relative to DMSO ([2]; 10 uM)	Burkin Assay in Myotubes, α7 integrin LacZ reporter signal relative to DMSO ([2]; 20 uM)	Burkin Assay in Myotubes, α7 integrin LacZ reporter signal relative to DMSO ([2]; 40 uM)	CMV-LACZ in Myoblasts (β-galactosidase activity relative to DMSO) ([3]; 0.5 uM)	CMV-LACZ in Myoblasts (β-galactosidase activity relative to DMSO) ([3]; 1 uM)	CMV-LACZ in Myoblasts (β-galactosidase activity relative to DMSO) ([3]; 5 uM)	CMV-LACZ in Myoblasts (β-galactosidase activity relative to DMSO) ([3]; 10 uM)	CMV-LACZ in Myoblasts (β-galactosidase activity relative to DMSO) ([3]; 20 uM)	CMV-LACZ in Myoblasts (β-galactosidase activity relative to DMSO) ([3]; 40 uM)	CMV-LACZ in Myotubes, signal relative to DMSO ([4]; 0.5 uM)	CMV-LACZ in Myotubes, signal relative to DMSO ([4]; 1 uM)	further results
Cc1cc(C)cc(OCC(=O)N/N=C/c2ccccn2)c1 [MLS000710669-01]	1.025	1.05	1.0722	0.9941	1.848	0.8243	1.045	1.163	1.054	0.9	0.9967	1.0073	1.0969	0.9975	1.0325	1.0823	1.1319	0.8778	0.9341	0.8881	CMV-LACZ in Myotubes, signal relative to DMSO ([4]; 5 uM): 0.9690; CMV-LACZ in Myotubes, signal relative to DMSO ([4]; 10 uM): 1.2372; CMV-LACZ in Myotubes, signal relative to DMSO ([4]; 20 uM): 0.8682; CMV-LACZ in Myotubes, signal relative to DMSO ([4]; 40 uM): 1.1824
CC1(C)Cc2ccccc2-c2nc3n(c(=O)c21)CCS3 [MLS000711491-01]	1.214	1.0159	1.02	1.024	0.7949	0.5793	1.07	1.062	0.9629	0.9462	0.671	0.579	1.0889	1.1060	0.9088	1.0199	1.5063	0.7800	0.9495	0.9095	CMV-LACZ in Myotubes, signal relative to DMSO ([4]; 5 uM): 0.9993; CMV-LACZ in Myotubes, signal relative to DMSO ([4]; 10 uM): 0.8645; CMV-LACZ in Myotubes, signal relative to DMSO ([4]; 20 uM): 1.1318; CMV-LACZ in Myotubes, signal relative to DMSO ([4]; 40 uM): 0.9929
CNC(=O)CSc1nnc(-c2ccc3c(c2)OCO3)n1C [MLS000717689-01]	1.158	1.042	1.032	1.038	0.96	0.9866	1.111	0.9006	1.048	1.076	0.8283	0.7135	1.0125	1.0203	1.1129	1.0936	1.0407	0.8996	0.8415	1.0956	CMV-LACZ in Myotubes, signal relative to DMSO ([4]; 5 uM): 0.9686; CMV-LACZ in Myotubes, signal relative to DMSO ([4]; 10 uM): 0.9569; CMV-LACZ in Myotubes, signal relative to DMSO ([4]; 20 uM): 0.9576; CMV-LACZ in Myotubes, signal relative to DMSO ([4]; 40 uM): 0.9129
